According to ChEMBL document CHEMBL4382226, “Design, synthesis and evaluation of hybrid of tetrahydrocarbazole with 2,4-diaminopyrimidine scaffold as antibacterial agents” (Eur J Med Chem, 2019):
≈ marks a conversion by molar mass, not a printed value.

Experiments:
Staphylococcus aureus [1] = assay: Antibacterial activity against Staphylococcus aureus Newman measured after 16 hrs; type: functional
Escherichia coli = assay: Antibacterial activity against Escherichia coli AB1157 measured after 16 hrs; type: functional; conditions: AB1157, 16 h
Staphylococcus aureus [2] = assay: Antibacterial activity against linezolid-resistant Staphylococcus aureus NRS-271 measured after 16 hrs; type: functional; conditions: NRS-271, 16 h
Staphylococcus aureus [3] = assay: Antibacterial activity against oxacillin/tetracycline-resistant Staphylococcus aureus NRS-100 measured after 16 hrs; type: functional; conditions: NRS-100, 16 h
Staphylococcus aureus [4] = assay: Antibacterial activity against gentamicin-resistant Staphylococcus aureus NRS-108 measured after 16 hrs; type: functional; conditions: NRS-108, 16 h
Staphylococcus aureus [5] = assay: Antibacterial activity against erythromycin-resistant Staphylococcus aureus NRS-70 measured after 16 hrs; type: functional; conditions: NRS-70, 16 h
Staphylococcus aureus [6] = assay: Antibacterial activity against aminoglycosides/tetracycline-resistant Staphylococcus aureus NRS-1 measured after 16 hrs; type: functional; conditions: NRS-1, 16 h
[7] = Apparent volume of distribution in Sprague-Dawley rat at 10 mg/kg, po administered as single dose via gavage; type: ADME, organism-based; conditions: in vivo
[8] = AUC (0 to infinity) in Sprague-Dawley rat at 10 mg/kg, po administered as single dose via gavage; type: ADME, organism-based; set-up: dose 10 mg/kg, route oral, time infinity; conditions: in vivo
[9] = AUC (0 to t) in Sprague-Dawley rat at 10 mg/kg, po administered as single dose via gavage; type: ADME, organism-based; conditions: in vivo
[10] = Tmax in Sprague-Dawley rat at 10 mg/kg, po administered as single dose via gavage; type: ADME, organism-based; conditions: in vivo
[11] = Mean residence time in Sprague-Dawley rat at 10 mg/kg, po administered as single dose via gavage; type: ADME, organism-based; conditions: in vivo
[12] = Half life in Sprague-Dawley rat at 10 mg/kg, po administered as single dose via gavage; type: ADME, organism-based; conditions: in vivo
[13] = Clearance in Sprague-Dawley rat at 10 mg/kg, po administered as single dose via gavage; type: ADME, organism-based; conditions: in vivo
[14] = Cmax in Sprague-Dawley rat at 10 mg/kg, po administered as single dose via gavage; type: ADME, organism-based; set-up: dose 10 mg/kg, route oral; conditions: in vivo

Compound	MIC (Staphylococcus aureus [1]) [mg/L]	MIC (Escherichia coli) [mg/L]	MIC (Staphylococcus aureus [2]) [mg/L]	MIC (Staphylococcus aureus [3]) [mg/L]	MIC (Staphylococcus aureus [4]) [mg/L]	MIC (Staphylococcus aureus [5]) [mg/L]	MIC (Staphylococcus aureus [6]) [mg/L]	other results
CC(C)CNc1nccc(NCCNC2CCCc3c2[nH]c2ccc(Br)cc32)n1 (stereo not drawn)	1.56 to 3.13 (≈ 3.41 to 6.84 µM)	1.56 to 3.13 (≈ 3.41 to 6.84 µM)						
CC(C)CNc1nccc(NCCCNC2CCCc3c2[nH]c2ccc(Cl)cc32)n1 (stereo not drawn)	1.56 to 3.13 (≈ 3.65 to 7.33 µM)	1.56 to 3.13 (≈ 3.65 to 7.33 µM)	1.56 to 3.13 (≈ 3.65 to 7.33 µM)	3.13 to 6.25 (≈ 7.33 to 14.6 µM)	1.56 to 3.13 (≈ 3.65 to 7.33 µM)	3.13 to 6.25 (≈ 7.33 to 14.6 µM)	1.56 to 3.13 (≈ 3.65 to 7.33 µM)	
CC(C)CNc1nccc(NCCCNC2CCCc3c2[nH]c2ccc(C(F)(F)F)cc32)n1 (stereo not drawn)	1.56 to 3.13 (≈ 3.39 to 6.8 µM)	1.56 to 3.13 (≈ 3.39 to 6.8 µM)	1.56 to 3.13 (≈ 3.39 to 6.8 µM)	1.56 to 3.13 (≈ 3.39 to 6.8 µM)	1.56 to 3.13 (≈ 3.39 to 6.8 µM)	1.56 to 3.13 (≈ 3.39 to 6.8 µM)	1.56 to 3.13 (≈ 3.39 to 6.8 µM)	
NC[C@H]1O[C@H](O[C@H]2[C@H](O)[C@@H](O[C@H]3O[C@H](CO)[C@@H](O)[C@H](N)[C@H]3O)[C@H](N)C[C@@H]2N)[C@H](O)[C@@H](O)[C@@H]1O [KANAMYCIN]		> 50			50 to 75 (≈ 103 to 155 µM)	50 to 75 (≈ 103 to 155 µM)	50 to 75 (≈ 103 to 155 µM)	
CC(C)CNc1nccc(NC2CCCc3c2[nH]c2ccc(OC(F)(F)F)cc32)n1 (stereo not drawn)	0.78 to 1.56 (≈ 1.86 to 3.72 µM)							
COc1ccc2[nH]c3c(c2c1)CCCC3NCCCNc1ccnc(NCC(C)C)n1 (stereo not drawn)	25 to 50 (≈ 59.2 to 118 µM)	> 50						
CN[C@H](CC(C)C)C(=O)N[C@H]1C(=O)N[C@@H](CC(N)=O)C(=O)N[C@H]2C(=O)N[C@H]3C(=O)N[C@H](C(=O)N[C@H](C(=O)O)c4cc(O)cc(O)c4-c4cc3ccc4O)[C@H](O)c3ccc(c(Cl)c3)Oc3cc2cc(c3O[C@@H]2O[C@H](CO)[C@@H](O)[C@H](O)[C@H]2O[C@H]2C[C@](C)(N)[C@H](O)[C@H](C)O2)Oc2ccc(cc2Cl)[C@H]1O [VANCOMYCIN]		6.25 to 12.5 (≈ 4.31 to 8.63 µM)						
CC(C)CNc1nccc(NCCCNC2CCCc3c2[nH]c2ccc(OC(F)(F)F)cc32)n1 (stereo not drawn)	1.56 to 3.13 (≈ 3.27 to 6.57 µM)	1.56 to 3.13 (≈ 3.27 to 6.57 µM)	1.56 to 3.13 (≈ 3.27 to 6.57 µM)	1.56 to 3.13 (≈ 3.27 to 6.57 µM)	1.56 to 3.13 (≈ 3.27 to 6.57 µM)	1.56 to 3.13 (≈ 3.27 to 6.57 µM)	1.56 to 3.13 (≈ 3.27 to 6.57 µM)	
CC(C)CNc1nccc(NCCCNC2CCCc3c2[nH]c2ccc(Br)cc32)n1 (stereo not drawn)	0.39 to 0.78 (≈ 0.827 to 1.65 µM)	0.39 to 0.78 (≈ 0.827 to 1.65 µM)	0.78 to 1.56 (≈ 1.65 to 3.31 µM)	0.78 to 1.56 (≈ 1.65 to 3.31 µM)	0.78 to 1.56 (≈ 1.65 to 3.31 µM)	0.78 to 1.56 (≈ 1.65 to 3.31 µM)	0.39 to 0.78 (≈ 0.827 to 1.65 µM)	Vd/F [7]: 103 L/kg; AUC(0-inf) [8]: 1.56 µg·h/mL; AUC(0-t) [9]: 1.2 µg·h/mL; Tmax [10]: 3.6 h; MRT [11]: 16.2 h; half-life [12]: 10.8 h; CL/F [13]: 6.6 L/h/kg; Cmax [14]: 0.0863 µg/mL
CC(C)CNc1nccc(NCCCNC2CCCc3c2[nH]c2ccccc32)n1 (stereo not drawn)	12.5 to 25 (≈ 31.8 to 63.7 µM)	12.5 to 25 (≈ 31.8 to 63.7 µM)						
CC(C)CNc1nccc(NCCCCNC2CCCc3c2[nH]c2ccc(OC(F)(F)F)cc32)n1 (stereo not drawn)	1.56 to 3.13 (≈ 3.18 to 6.38 µM)	3.13 to 6.25 (≈ 6.38 to 12.7 µM)						
Cc1ccc2[nH]c3c(c2c1)CCCC3NCCCCc1ccccc1 (stereo not drawn)	5 to 6.6 (≈ 15 to 19.9 µM)		4.2 to 5.8 (≈ 12.6 to 17.4 µM)	2.9 to 4.2 (≈ 8.72 to 12.6 µM)	4.2 to 5.8 (≈ 12.6 to 17.4 µM)	2.9 to 4.2 (≈ 8.72 to 12.6 µM)	2.9 to 4.2 (≈ 8.72 to 12.6 µM)	
COC(=O)c1ccc2[nH]c3c(c2c1)CCCC3NCCCNc1ccnc(NCC(C)C)n1 (stereo not drawn)	25 to 50 (≈ 55.5 to 111 µM)	> 50						
COc1cccc2c3c([nH]c12)C(NCCCNc1ccnc(NCC(C)C)n1)CCC3 (stereo not drawn)	12.5 to 25 (≈ 29.6 to 59.2 µM)	12.5 to 25 (≈ 29.6 to 59.2 µM)						
CN(C)[C@@H]1C(O)=C(C(N)=O)C(=O)[C@@]2(O)C(O)=C3C(=O)c4c(O)cccc4[C@@](C)(O)[C@H]3C[C@@H]12 [TETRACYCLINE]			< 1.56	< 1.56	< 1.56	< 1.56	> 12.5	
Cc1ccc2[nH]c3c(c2c1)CCCC3NCc1ccccc1 (stereo not drawn)	14.5 to 20.9 (≈ 49.9 to 72 µM)							
CC(C)CNc1nccc(NCCCNC2CCCc3c2[nH]c2ccc(F)cc32)n1 (stereo not drawn)	12.5 to 25 (≈ 30.4 to 60.9 µM)	12.5 to 25 (≈ 30.4 to 60.9 µM)						
Cc1ccc2[nH]c3c(c2c1)CCCC3NCCCc1ccccc1 (stereo not drawn)	4 to 8 (≈ 12.6 to 25.1 µM)							
Cc1ccc2[nH]c3c(c2c1)CCCC3NCCc1ccccc1 (stereo not drawn)	15 to 30.2 (≈ 49.3 to 99.2 µM)							
CC(C)CNc1nccc(NCCNC2CCCc3c2[nH]c2ccc(OC(F)(F)F)cc32)n1 (stereo not drawn)	3.13 to 6.25 (≈ 6.77 to 13.5 µM)	3.13 to 6.25 (≈ 6.77 to 13.5 µM)						
CC(C)CNc1nccc(NCCCNC2CCCc3c2[nH]c2c(Br)cccc32)n1 (stereo not drawn)	3.13 to 6.25 (≈ 6.64 to 13.3 µM)	6.25 to 12.5 (≈ 13.3 to 26.5 µM)	6.25 to 12.5 (≈ 13.3 to 26.5 µM)	6.25 to 12.5 (≈ 13.3 to 26.5 µM)	6.25 to 12.5 (≈ 13.3 to 26.5 µM)	6.25 to 12.5 (≈ 13.3 to 26.5 µM)	3.13 to 6.25 (≈ 6.64 to 13.3 µM)	
CC(C)CNc1nccc(NCCCCNC2CCCc3c2[nH]c2ccc(Br)cc32)n1 (stereo not drawn)	0.78 to 1.56 (≈ 1.61 to 3.21 µM)	1.56 to 3.13 (≈ 3.21 to 6.45 µM)						
CC(C)CNc1nccc(NCCCNC2CCCc3c2[nH]c2ccc(C(=O)O)cc32)n1 (stereo not drawn)	> 50	> 50						
